Measurements: PubChem BioAssay (NCI)
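Test compounds were applied to cells in 96-well plates for 48 hours at 5 doses. TGI: concentration producing complete growth inhibition.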

Tests used:
Assay in all cases: NCI anticancer screen, dose series, 48 h
[1] = tested on: A498 renal
[2] = tested on: DMS 273 small cell lung
[3] = tested on: OVCAR-5 ovarian
[4] = tested on: LXFL 529 NSCLC
[5] = tested on: IGROV1 ovarian
[6] = tested on: SK-MEL-28 melanoma
[7] = tested on: HCC-2998 colon
[8] = tested on: CCRF-CEM leukemia
[9] = tested on: SNB-75 CNS
[10] = tested on: TK-10 renal
[11] = tested on: SK-MEL-5 melanoma
[12] = tested on: OVCAR-3 ovarian
[13] = tested on: HCT-116 colon
[14] = tested on: MALME-3M melanoma
[15] = tested on: LOX IMVI melanoma
[16] = tested on: EKVX NSCLC
[17] = tested on: NCI-H522 lung
[18] = tested on: NCI-H23 lung
[19] = tested on: UO-31 renal
[20] = tested on: SN12C renal
[21] = tested on: K-562 leukemia
[22] = tested on: ACHN renal
[23] = tested on: U251 CNS
[24] = tested on: RPMI-8226 leukemia
[25] = tested on: M14 melanoma
[26] = tested on: KM20L2 colon
[27] = tested on: HOP-92 NSCLC
[28] = tested on: COLO 205 colon
[29] = tested on: OVCAR-4 ovarian
[30] = tested on: SF-539 CNS
[31] = tested on: SNB-78 CNS
[32] = tested on: SW-620 colon
[33] = tested on: KM12 colon
[34] = tested on: UACC-257 melanoma
[35] = tested on: DLD-1 colon
[36] = tested on: 786-0 renal
[37] = tested on: SNB-19 CNS
[38] = tested on: RXF-631 renal
[39] = tested on: NCI-H460 lung
[40] = tested on: A549 NSCLC
[41] = tested on: HCT-15 colon
[42] = tested on: HL-60(TB) leukemia
[43] = tested on: OVCAR-8 ovarian
[44] = tested on: SF-268 CNS
[45] = tested on: SF-295 CNS
[46] = tested on: HT29 colon
[47] = tested on: SK-OV-3 ovarian
[48] = tested on: HOP-62 NSCLC
[49] = tested on: SK-MEL-2 melanoma
[50] = tested on: XF 498 CNS
[51] = tested on: UACC-62 melanoma
[52] = tested on: MOLT-4 leukemia
[53] = tested on: DMS 114 small cell lung
[54] = tested on: DU-145 prostate
[55] = tested on: HS 578T breast
[56] = tested on: MDA-MB-435
[57] = tested on: M19-MEL melanoma
[58] = tested on: MDA-MB-231 breast
[59] = tested on: T-47D breast
[60] = tested on: NCI/ADR-RES ovarian
[61] = tested on: RXF 393 renal
[62] = tested on: NCI-H226 lung
[63] = tested on: BT-549 breast
[64] = tested on: PC-3 prostate
[65] = tested on: MDA-N
[66] = tested on: SR leukemia
[67] = tested on: CAKI-1 renal
[68] = tested on: MCF7 breast

Cc1cc2c(c(C(N)=O)c1C)-c1cccc(Cl)c1C2=O
TGI [1]: > 100 µM
TGI [2]: > 100 µM
TGI [3]: > 100 µM
TGI [4]: > 100 µM
TGI [5]: > 100 µM
TGI [6]: > 100 µM
TGI [7]: > 100 µM
TGI [8]: > 100 µM
TGI [9]: > 100 µM
TGI [10]: > 100 µM
TGI [11]: > 100 µM
TGI [12]: > 100 µM
TGI [13]: > 100 µM
TGI [14]: > 100 µM
TGI [15]: > 100 µM
TGI [16]: > 100 µM
TGI [17]: > 100 µM
TGI [18]: > 100 µM
TGI [19]: > 100 µM
TGI [20]: > 100 µM
TGI [21]: > 100 µM
TGI [22]: > 100 µM
TGI [23]: > 100 µM
TGI [24]: > 100 µM
TGI [25]: > 100 µM
TGI [26]: > 100 µM
TGI [27]: > 100 µM
TGI [28]: > 100 µM
TGI [29]: > 100 µM
TGI [30]: > 100 µM
TGI [31]: > 100 µM
TGI [32]: > 100 µM
TGI [33]: > 100 µM
TGI [34]: > 100 µM
TGI [35]: > 100 µM
TGI [36]: > 100 µM
TGI [37]: > 100 µM
TGI [38]: > 100 µM
TGI [39]: > 100 µM
TGI [40]: > 100 µM
TGI [41]: > 100 µM
TGI [42]: > 100 µM
TGI [43]: > 100 µM
TGI [44]: > 100 µM
TGI [45]: > 100 µM
TGI [46]: > 100 µM
TGI [47]: > 100 µM
TGI [48]: > 100 µM
TGI [49]: > 100 µM
TGI [50]: > 100 µM
TGI [51]: > 100 µM
TGI [52]: > 100 µM
TGI [53]: > 100 µM

O=C1C=CC(=O)c2c(O)c(CO)c(CO)c(O)c21
TGI [1]: 3.64 µM
TGI [2]: 1.42 µM
TGI [3]: 3.54 µM
TGI [54]: 3.27 µM
TGI [4]: 0.351 µM
TGI [55]: 4.71 µM
TGI [56]: 1.66 µM
TGI [5]: 4.14 µM
TGI [6]: 0.96 µM
TGI [7]: 4.78 µM
TGI [57]: 0.216 µM
TGI [58]: 2.74 µM
TGI [8]: 0.195 µM
TGI [9]: 1.64 µM
TGI [10]: 0.842 µM
TGI [11]: 1.12 µM
TGI [12]: 1.71 µM
TGI [59]: 1.52 µM
TGI [13]: 0.662 µM
TGI [14]: 0.467 µM
TGI [15]: 0.674 µM
TGI [16]: 5.03 µM
TGI [17]: 0.239 µM
TGI [18]: 1.3 µM
TGI [19]: 2.2 µM
TGI [20]: 0.774 µM
TGI [21]: 13.4 µM
TGI [60]: 8.2 µM
TGI [61]: 0.939 µM
TGI [22]: 1.05 µM
TGI [23]: 5.35 µM
TGI [62]: 5.03 µM
TGI [24]: 0.814 µM
TGI [25]: 0.411 µM
TGI [63]: 0.593 µM
TGI [26]: 2.25 µM
TGI [27]: 0.944 µM
TGI [64]: 4.37 µM
TGI [28]: 0.171 µM
TGI [29]: 0.581 µM
TGI [30]: 1.71 µM
TGI [31]: 3.52 µM
TGI [32]: 0.288 µM
TGI [33]: 3.19 µM
TGI [34]: 0.883 µM
TGI [65]: 0.736 µM
TGI [35]: 0.202 µM
TGI [36]: 0.723 µM
TGI [37]: 6.13 µM
TGI [38]: 2.55 µM
TGI [39]: 2.79 µM
TGI [40]: 5.58 µM
TGI [41]: 0.49 µM
TGI [42]: 0.405 µM
TGI [43]: 2.04 µM
TGI [44]: 3.93 µM
TGI [45]: 3.19 µM
TGI [66]: 0.481 µM
TGI [67]: 0.875 µM
TGI [46]: 0.741 µM
TGI [47]: 18 µM
TGI [48]: 2.4 µM
TGI [49]: 2.58 µM
TGI [68]: 0.337 µM
TGI [50]: 0.665 µM
TGI [51]: 1.88 µM
TGI [52]: 0.188 µM
TGI [53]: 0.878 µM

CN(O)C(=O)c1ccccc1
TGI [2]: > 100 µM
TGI [3]: > 100 µM
TGI [4]: > 100 µM
TGI [5]: > 100 µM
TGI [6]: > 100 µM
TGI [7]: > 100 µM
TGI [57]: > 100 µM
TGI [8]: > 100 µM
TGI [9]: > 100 µM
TGI [10]: > 100 µM
TGI [11]: > 100 µM
TGI [12]: > 100 µM
TGI [13]: > 100 µM
TGI [14]: > 100 µM
TGI [15]: > 100 µM
TGI [17]: > 100 µM
TGI [18]: > 100 µM
TGI [19]: > 100 µM
TGI [20]: > 100 µM
TGI [21]: > 100 µM
TGI [61]: > 100 µM
TGI [22]: > 100 µM
TGI [23]: > 100 µM
TGI [62]: > 100 µM
TGI [24]: > 100 µM
TGI [25]: > 100 µM
TGI [26]: > 100 µM
TGI [27]: > 100 µM
TGI [28]: > 100 µM
TGI [29]: > 100 µM
TGI [30]: > 100 µM
TGI [32]: > 100 µM
TGI [33]: > 100 µM
TGI [34]: > 100 µM
TGI [35]: > 100 µM
TGI [36]: > 100 µM
TGI [37]: > 100 µM
TGI [38]: > 100 µM
TGI [39]: > 100 µM
TGI [40]: > 100 µM
TGI [42]: > 100 µM
TGI [43]: > 100 µM
TGI [44]: > 100 µM
TGI [45]: > 100 µM
TGI [66]: > 100 µM
TGI [67]: > 100 µM
TGI [46]: > 100 µM
TGI [47]: > 100 µM
TGI [48]: > 100 µM
TGI [50]: > 100 µM
TGI [51]: > 100 µM
TGI [52]: > 100 µM
TGI [53]: > 100 µM

Cc1nc(-c2nc(C)c(C(=O)/C=C/c3ccc(N(C)C)cc3)s2)sc1C(=O)/C=C/c1ccc(N(C)C)cc1
TGI [2]: > 100 µM
TGI [3]: > 100 µM
TGI [4]: > 100 µM
TGI [5]: > 100 µM
TGI [6]: > 100 µM
TGI [7]: > 100 µM
TGI [57]: > 100 µM
TGI [8]: > 100 µM
TGI [10]: > 100 µM
TGI [12]: > 100 µM
TGI [13]: > 100 µM
TGI [14]: > 100 µM
TGI [15]: > 100 µM
TGI [16]: > 100 µM
TGI [17]: 89.2 µM
TGI [18]: > 100 µM
TGI [19]: > 100 µM
TGI [20]: > 100 µM
TGI [21]: > 100 µM
TGI [61]: > 100 µM
TGI [22]: > 100 µM
TGI [23]: > 100 µM
TGI [62]: > 100 µM
TGI [25]: > 100 µM
TGI [26]: > 100 µM
TGI [28]: > 100 µM
TGI [29]: > 100 µM
TGI [30]: > 100 µM
TGI [32]: > 100 µM
TGI [33]: > 100 µM
TGI [34]: > 100 µM
TGI [35]: > 100 µM
TGI [36]: > 100 µM
TGI [37]: > 100 µM
TGI [38]: > 100 µM
TGI [39]: > 100 µM
TGI [40]: > 100 µM
TGI [41]: > 100 µM
TGI [42]: > 100 µM
TGI [43]: > 100 µM
TGI [44]: > 100 µM
TGI [45]: > 100 µM
TGI [66]: > 100 µM
TGI [67]: > 100 µM
TGI [47]: > 100 µM
TGI [48]: > 100 µM
TGI [49]: > 100 µM
TGI [50]: 44.6 µM
TGI [51]: 58 µM
TGI [52]: > 100 µM
TGI [53]: > 100 µM
